Results reported in the NIST ThermoML archive (doi:10.1021/je5001507).

What was measured:
[1] = for mass density / electrical conductivity / viscosity: 101.33 kPa, Liquid; for mass density: Vibrating tube method; for surface tension liquid-gas: plate method; for electrical conductivity: Alternating current cell with electrodes
[2] = refractive index (Na D-line) (dimensionless); details: 101.33 kPa, Liquid, Standard Abbe refractometry

CC(C)C[NH2+]CCCS(=O)(=O)O.O=S(=O)([O-])O [N-isobutyl-3-sulfopropan-1-aminium hydrogen sulfate]
Details | electrical conductivity, [1] [S/m] | mass density, [1] [kg/m3] | refractive index, [2] | surface tension liquid-gas, [1] [mN/m] | viscosity, [1] [mPa·s]
293.15 K | – | 1387.92 | 1.50559 | – | –
298.15 K | 0.00856 | – | 1.50436 | 52.18 | –
303.15 K | 0.0145 | 1383.65 | 1.50314 | 51.64 | –
308.15 K | 0.0235 | – | 1.50205 | 51.14 | 14383
313.15 K | 0.0367 | 1377.6 | 1.5008 | 50.69 | 9083
318.15 K | 0.0526 | – | 1.49974 | 50.15 | 5533
323.15 K | 0.0713 | 1371.59 | 1.49851 | 49.58 | 3833
328.15 K | 0.104 | – | 1.49756 | 48.98 | 2867
333.15 K | 0.14 | 1365.64 | 1.4963 | – | 1983
338.15 K | 0.177 | – | – | – | 1333
343.15 K | 0.221 | 1359.71 | – | – | 1033
348.15 K | 0.28 | – | – | – | 766.7
353.15 K | 0.353 | 1353.8 | – | – | 616.7
358.15 K | – | – | – | – | 483.3
363.15 K | – | 1347.97 | – | – | 416.7
368.15 K | – | – | – | – | 333.3
373.15 K | – | – | – | – | 283.3

CC(C)C[NH2+]CCCCS(=O)(=O)O.O=S(=O)([O-])O [N-isobutyl-4-sulfobutan-1-aminium hydrogen sulfate]
Details | electrical conductivity, [1] [S/m] | mass density, [1] [kg/m3] | refractive index, [2] | surface tension liquid-gas, [1] [mN/m] | viscosity, [1] [mPa·s]
293.15 K | – | 1359.08 | 1.48143 | – | –
298.15 K | 0.593 | – | 1.4803 | 47.15 | 14433
303.15 K | 0.757 | 1353.21 | 1.47918 | 46.79 | 9450
308.15 K | 1.04 | – | 1.47804 | 46.48 | 6033
313.15 K | 1.32 | 1347.39 | 1.47689 | 46.12 | 4267
318.15 K | 1.65 | – | 1.47576 | 45.74 | 2967
323.15 K | 2.16 | 1341.63 | 1.47461 | 45.3 | 2117
328.15 K | 2.53 | – | 1.4734 | 44.93 | 1550
333.15 K | 3.01 | 1335.95 | 1.47212 | – | 1033
338.15 K | 3.67 | – | – | – | 766.7
343.15 K | 4.29 | 1330.29 | – | – | 633.3
348.15 K | 4.96 | – | – | – | 483.3
353.15 K | 5.61 | 1324.66 | – | – | 383.3
358.15 K | – | – | – | – | 316.7
363.15 K | – | 1319.09 | – | – | 266.7
368.15 K | – | – | – | – | 200
373.15 K | – | – | – | – | 166.7
